From patent US9730442B2, “Use of 4-phenylbutyric acid for improving the tolerance of plants to harmful biological organisms” (INSTITUT DE RECHERCHE POUR LE DÉVELOPPEMENT (IRD), priority 2012, dated 2017) come the findings set out here.

Series [1] concerns hypersensitive cell death induced by cryptogein. Put plainly: Hypersensitive cell death induced in tobacco by cryptogein (data not shown). The format is in vivo. As for the experimental part:
(§1) The effect of 4-PBA on cell death of hypersensitive nature was tested on several pathosystems, including those presented in FIGS. 1 & 2, namely Gossypium hirsutum/Xanthomonas campestris pv. malvacearum and Arabidopsis thaliana/Pseudomonas syringae. pv. tomato, respectively. […] The latter data concern hypersensitive cell death induced in tobacco by an elicitor of fungal origin, cryptogein, and nonhost hypersensitive cell death in tobacco interacting with the bacterium Pseudomonas syringae pv. tomato.

Series [2] deals with nonhost hypersensitive cell death induced by Pseudomonas syringae pv. tomato. Put plainly: Nonhost hypersensitive cell death in tobacco interacting with Pseudomonas syringae pv. tomato (data not presented). It counts as in vivo. On the procedure:
as §1

For series [3], the system named is genes encoding BiP proteins. Description: Real-time quantitative PCR of BiP genes in tobacco leaves. As to conditions: 4-PBA infiltrated into tobacco leaves; FIG. 4B. The format is in vivo, Nicotiana tabacum. As for the experimental part:
(§2) The concentration range presented in FIG. 4A was produced by infiltration into tobacco leaves of 4-PBA solutions at 0.5, 1, 2.5 and 5 mM. The macroscopic symptoms were evaluated 48 hours post-infiltration. Samples were also harvested at the times indicated in FIG. 4B and treated as described above so as to be analyzed by real-time quantitative PCR. Primers specific for all of the nine genes encoding BiP proteins were designed for this purpose.

A further series has as its system Xcm race 20. Put plainly: In vitro bacterial growth in King B liquid medium, absorbance at 600 nm. As to conditions: 4-PBA 1 mM in King B liquid medium; approximately 16 hours, 30° C.; FIG. 5. It counts as cell-based, Xanthomonas campestris pv. malvacearum. As for the experimental part:
The effect of 4-PBA on phytopathogenic bacteria was tested in vitro on the bacterial strain Xcm race 20. The strain was cultured in King B liquid medium in the presence or absence of 4-PBA. The 4-PBA solution was prepared extemporaneously as described above. The nutritive medium was inoculated either using glycerol stocks, or using bacterial colonies freshly cultured in solid medium. The nutritive medium was then supplemented with the 4-PBA solution in order to achieve a final concentration of 1 mM (final volume of 10 ml). […] The tubes were then incubated overnight (approximately 16 hours) with gentle shaking at 30° C. The bacterial growth was then measured by nephelometry by measuring the absorbance of an aliquot of the bacterial cultures at 600 nm. This experiment was repeated three times. Each experiment contained one technical triplicate per condition, i.e. condition with 4-PBA and condition without 4-PBA.

Series [4] concerns hypersensitive cell death induced by Pseudomonas syringae pv. tomato (Pst, avirulent strain DC3000::AvrRpt2). Description: Hypersensitive cell death induced by Pst infiltration into Arabidopsis thaliana leaves. The format is in vivo. As to conditions: 4-PBA 1 mM co-infiltrated with Pst DC3000::AvrRpt2 at 10^7 cfu/ml; six days post-inoculation; FIG. 2. As for the experimental part: (§3) A stock solution of 4-PBA (10 mM) was prepared extemporaneously by dissolving powder in sterile distilled water. In order to allow complete dissolution of the 4-PBA, the solution was heated at 50° C. for 10 minutes.
The bacteria (Pst, avirulent strain DC3000::AvrRpt2) were cultured overnight in a rich nutritive medium (King B). After sedimentation by centrifugation, said bacteria were washed with sterile distilled water before being resuspended at a concentration of 10^7 cfu/ml. The resuspending of the cells is carried out either in sterile distilled water, or in a solution of 4-PBA at 1 mM. These suspensions were then infiltrated into the leaves of the Arabidopsis thaliana rosette. The macroscopic symptoms were monitored over a period of six days post-inoculation.

Series [5] concerns genes encoding BiP1,2, BiP3, CNX1 and CRT1. Put plainly: Real-time quantitative PCR of endoplasmic reticulum chaperone genes in A. thaliana leaves. The format is in vivo, Arabidopsis thaliana. As to conditions: 44 hours post-inoculation, FIG. 3. On the procedure: The 4-PBA solutions used in the experiments described hereinafter were prepared as described in Example 1.
The infection with Pst (avirulent strain DC3000::AvrRpt2) was carried out under the same conditions as those described above. An additional condition was added, corresponding to the infiltration of a solution of 4-PBA (1 mM) alone into the A. thaliana leaves.
Samples were harvested 44 hours post-inoculation, frozen in liquid nitrogen and then stored at −80° C. until total RNA extraction. The total RNA was reverse transcribed so as to synthesize cDNAs. These cDNAs were used as a template in real-time quantitative PCR experiments. Primers specific for the genes encoding the binding proteins (BiP1,2 and BiP3), calnexin 1 (CNX1) and calreticulin 1 (CRT1) were designed so as to measure the expression of these genes. The expression of the genes of interest was standardized with respect to that of an actin gene. These experiments were repeated once, including one as a duplicate per experiment.

For series [6], the system named is hypersensitive cell death induced by Xanthomonas campestris pv. malvacearum (Xcm, race 18). Put plainly: Hypersensitive cell death induced by Xcm infiltration into cotton plant cotyledons. The format is in vivo, Gossypium hirsutum. As to conditions: 4-PBA 2 mM co-infiltrated with Xcm race 18 at 10^8 cfu/ml; four days after inoculation; FIG. 1. As for the experimental part: as §3
The Xanthomonas campestris pv. malvacearum bacteria (Xcm, race 18) were cultured overnight in a rich nutritive medium (King B). After sedimentation by centrifugation, said bacteria were washed with sterile distilled water before being resuspended at a concentration of 10^8 cfu/ml. The resuspending of the cells is carried out either in sterile distilled water, or in a solution of 4-PBA at 2 mM. These two types of suspensions were infiltrated into cotton plant (Gossypium hirsutum) cotyledons on each side of the central vein for comparison.

Series [7] relates to tobacco leaves (plant cells). Put plainly: Concentration range infiltrated into tobacco leaves, macroscopic symptoms. The format is in vivo, Nicotiana tabacum. As to conditions: 4-PBA at 0.5, 1, 2.5 and 5 mM infiltrated into tobacco leaves; 48 hours post-infiltration; FIG. 4A. On the procedure: as §2

Turning to `O=C(O)CCCc1ccccc1` [4-PBA, 4-phenylbutyric acid], the “hypersensitive cell death induced by cryptogein in tobacco” value in series [1] was “repress hypersensitive cell death”. For the same molecule, in series [2], the “nonhost hypersensitive cell death in tobacco with Pseudomonas syringae pv. tomato” value was “confirm the anti-cell death properties”. Besides, the “BiP gene expression in tobacco” value in series [3] is “capable of inducing BiP gene expression in tobacco”. The “bacterial growth (absorbance at 600 nm)” value with Xcm race 20 is recorded as “strongly inhibits the growth”. Also, the “hypersensitive symptoms (macroscopic) in A. thaliana leaves” value in series [4] is reported as “capable of abolishing the hypersensitive symptoms”. Moreover, the “expression of genes encoding chaperone proteins (BiP1,2, BiP3, CNX1, CRT1)” value in series [5] (4-PBA 1 mM infiltrated alone, standardized to actin) is “significantly induce the expression of genes encoding chaperone proteins”. Moreover, the “expression of BiP1,2, CNX1 and CRT1 genes, 4-PBA combined with Pst infection” value in series [5] (4-PBA 1 mM plus Pst) was “synergistic effect”. For the same molecule, the “hypersensitive symptoms (macroscopic) in cotton plant cotyledonary leaves” value in series [6] was “strongly represses the hypersensitive symptoms”. Moreover, the “toxicity to plant cells (macroscopic symptoms)” value in series [7] is on record as “not toxic to the plant cells”.
